Test: Stability of free peptide incubated in release medium (HPLC)
Type: physicochemical
Conditions: PBS, pH 7.2, 37° C., after 49 days
Method: Octreotide acetate as the free peptide was measured to be 95% intact by high-pressure liquid chromatography (HPLC) following incubation in the release medium (PBS, pH 7.2, 37° C.) after 49 days. In contrast, incubation of octreotide acetate PLGA microparticle formulations produced 55% of modified peptide species after 70 days in the release medium (PBS, pH 7.2, 37° C., Table 2). […] The masses found were consistent with random acylation, for example, peptide plus one or two glycolic or lactic acid monomers in any combination. It may be that acylation products arise from attack on PLGA fragments or the polymer backbone by nucleophilic moieties in octreotide. At a lower pH these moieties likely would be protonated reducing their nucleophilicity and consequently the amount of acylated product. It was observed that formation of acylated byproducts for octreotide acetate PLGA microparticles incubated in 100 mM sodium acetate (NaOAc, pH 4.0) buffer was reduced to 1.25% at 49 days, in marked contrast to the results for PBS buffer (55%).

Structure (SMILES): C[C@@H](O)[C@@H]1NC(=O)[C@H](CCCCN)NC(=O)[C@@H](Cc2c[nH]c3ccccc23)NC(=O)[C@H](Cc2ccccc2)NC(=O)[C@@H](NC(=O)[C@H](N)Cc2ccccc2)CSSC[C@@H](C(=O)N[C@H](CO)[C@@H](C)O)NC1=O [Octreotide acetate, octreotide acetate]
- intact peptide by HPLC: 95%

Reference: patent publication US8900636B2, “Controlled release compositions” (Evonik Corporation, priority 2003, dated 2014)
